Source: ChEMBL document CHEMBL6074623, “Carbamoylation at C-8 position of natural 3-arylcoumarin scaffold for the discovery of novel PARP-1 inhibitors with potent anticancer activity” (Eur J Med Chem, 2024)

What was measured:
SUM149PT [1] = experiment: Antiproliferative activity against human SUM149PT cells assessed as inhibition of cell growth at 20 uM incubated for 48 hrs by MTT assay relative to control; type: functional
MDA-MB-436 = experiment: Antiproliferative activity against human MDA-MB-436 cells assessed as inhibition of cell growth at 20 uM incubated for 48 hrs by MTT assay relative to control; type: functional
HCC1937 [2] = experiment: Antiproliferative activity against human HCC1937 cells assessed as inhibition of cell growth at 20 uM incubated for 48 hrs by MTT assay relative to control; type: functional
SUM149PT [3] = experiment: Antiproliferative activity against human SUM149PT cells assessed as inhibition of cell growth incubated for 48 hrs by MTT assay; type: functional, cell-based
CAPAN-1 [4] = experiment: Antiproliferative activity against human CAPAN-1 cells assessed as inhibition of cell growth incubated for 48 hrs by MTT assay; type: functional, cell-based; conditions: CAPAN-1, 48 h
HCC1937 [5] = experiment: Antiproliferative activity against human HCC1937 cells assessed as inhibition of cell growth incubated for 48 hrs by MTT assay; type: functional, cell-based; conditions: HCC1937, 48 h
CAPAN-1 [6] = experiment: Antiproliferative activity against human CAPAN-1 cells assessed as inhibition of cell growth at 20 uM incubated for 48 hrs by MTT assay relative to control; type: functional
CAPAN-1 [7] = experiment: Antiproliferative activity against human CAPAN-1 cells assessed as inhibition of cell growth at 5 uM incubated for 48 hrs by MTT assay relative to control; type: functional
HCC1937 [8] = experiment: Antiproliferative activity against human HCC1937 cells assessed as inhibition of cell growth at 5 uM incubated for 48 hrs by MTT assay relative to control; type: functional
SUM149PT [9] = experiment: Induction of apoptosis in human SUM149PT cells assessed as viable cells at 2 uM incubated for 48 hrs by Annexin V-FITC/PI staining based flow cytometry (reference value: 96.1 %); type: functional; conditions: read-out: Activity
SUM149PT [10] = experiment: Induction of apoptosis in human SUM149PT cells assessed as necrotic cells at 2 uM incubated for 48 hrs by Annexin V-FITC/PI staining based flow cytometry (reference value: 0.51 %); type: functional
SUM149PT [11] = experiment: Induction of apoptosis in human SUM149PT cells assessed as late apoptotic cells at 2 uM incubated for 24 hrs by Annexin V-FITC/PI staining based flow cytometry (reference value: 2.45 %); type: functional
SUM149PT [12] = experiment: Induction of cell cycle arrest in human SUM149PT cells assessed as accumulation of cells at G0/G1 phase at 2 uM incubated for 24 hrs by propidium iodide/RNase A staining based flow cytometry (reference value: 72.8 %); type: functional
SUM149PT [13] = experiment: Induction of apoptosis in human SUM149PT cells assessed as viable cells at 2 uM incubated for 24 hrs by Annexin V-FITC/PI staining based flow cytometry (reference value: 93.7 %); type: functional; conditions: read-out: Activity
SUM149PT [14] = experiment: Induction of apoptosis in human SUM149PT cells assessed as early apoptotic cells at 2 uM incubated for 24 hrs by Annexin V-FITC/PI staining based flow cytometry (reference value: 2.59 %); type: functional
SUM149PT [15] = experiment: Induction of apoptosis in human SUM149PT cells assessed as late apoptotic cells at 2 uM incubated for 48 hrs by Annexin V-FITC/PI staining based flow cytometry (reference value: 1.13 %); type: functional
SUM149PT [16] = experiment: Induction of apoptosis in human SUM149PT cells assessed as early apoptotic cells at 2 uM incubated for 48 hrs by Annexin V-FITC/PI staining based flow cytometry (reference value: 2.28 %); type: functional
SUM149PT [17] = experiment: Induction of cell cycle arrest in human SUM149PT cells assessed as accumulation of cells at G2/M phase at 2 uM incubated for 24 hrs by propidium iodide/RNase A staining based flow cytometry (reference value: 5.54 %); type: functional
SUM149PT [18] = experiment: Induction of cell cycle arrest in human SUM149PT cells assessed as accumulation of cells at S phase at 2 uM incubated for 24 hrs by propidium iodide/RNase A staining based flow cytometry (reference value: 16.4 %); type: functional
SUM149PT [19] = experiment: Induction of cell cycle arrest in human SUM149PT cells assessed as accumulation of cells at S phase at 2 uM incubated for 48 hrs by propidium iodide/RNase A staining based flow cytometry (reference value: 18.7 %); type: functional
SUM149PT [20] = experiment: Induction of apoptosis in human SUM149PT cells assessed as necrotic cells at 2 uM incubated for 24 hrs by Annexin V-FITC/PI staining based flow cytometry (reference value: 1.27 %); type: functional
SUM149PT [21] = experiment: Induction of cell cycle arrest in human SUM149PT cells assessed as accumulation of cells at G0/G1 phase at 2 uM incubated for 48 hrs by propidium iodide/RNase A staining based flow cytometry (reference value: 69.2 %); type: functional
SUM149PT [22] = experiment: Antiproliferative activity against human SUM149PT cells assessed as inhibition of cell growth at 5 uM incubated for 48 hrs by MTT assay relative to control; type: functional

SMILES	inhibition at 20 µM (SUM149PT [1]) [%]	inhibition at 20 µM (MDA-MB-436) [%]	inhibition at 20 µM (HCC1937 [2]) [%]	IC50 (SUM149PT [3]) [µM]	IC50 (CAPAN-1 [4]) [µM]	IC50 (HCC1937 [5]) [µM]	further results
NC(=O)c1cccc2cc(-c3cccs3)c(=O)oc12	> 60	< 40	> 60	–	–	–	–
NC(=O)c1cc(F)cc2cc(-c3ccc4c(c3)CCO4)c(=O)oc12	> 60	< 40	> 60	5.11	21.1	3.71	–
COc1ccc(-c2cc3cccc(C(N)=O)c3oc2=O)cc1	> 60	< 40	> 60	–	–	–	–
COc1cc(-c2cc3cc(F)cc(C(N)=O)c3oc2=O)ccc1O	> 60	< 40	> 60	3.18	3.16	4.2	inhibition at 20 µM (CAPAN-1 [6]): > 60%; inhibition at 5 µM (CAPAN-1 [7]): > 50%
COc1ccc(-c2cc3cccc(C(N)=O)c3oc2=O)cc1OC	> 60	< 40	> 60	–	–	–	–
COc1ccc(-c2cc3cccc(C(N)=O)c3oc2=O)cc1O	> 60	< 40	> 60	4.82	15.3	10.6	–
NC(=O)c1cccc2cc(-c3ccc4c(c3)CCO4)c(=O)oc12	> 60	< 40	> 60	–	–	–	–
NC(=O)c1cccc2cc(-c3ccccc3)c(=O)oc12	> 60	< 40	> 60	–	–	–	inhibition at 20 µM (CAPAN-1 [6]): > 60%; inhibition at 5 µM (CAPAN-1 [7]): > 50%
NC(=O)c1cc(F)cc2cc(-c3ccc(O)cc3)c(=O)oc12	> 60	< 40	> 60	–	–	–	–
NC(=O)c1cc(F)cc2cc(-c3ccccc3O)c(=O)oc12	> 60	< 40	> 80	3.29	11.9	2.94	inhibition at 5 µM (HCC1937 [8]): > 70%
NC(=O)c1cccc2cn(-c3ccc([C@@H]4CCCNC4)cc3)nc12 [NIRAPARIB]	–	–	–	7.05	10.4	–	viability at 2 µM (SUM149PT [9]): 77.7%; Activity (SUM149PT [10]): 3.34%; Activity (SUM149PT [11]): 6.34%; Activity (SUM149PT [12]): 54.2%; viability at 2 µM (SUM149PT [13]): 89.9%; Activity (SUM149PT [14]): 1.85%; Activity (SUM149PT [15]): 7.18%; Activity (SUM149PT [16]): 11.8%; Activity (SUM149PT [17]): 16.2%; Activity (SUM149PT [18]): 28.4%; Activity (SUM149PT [19]): 51.9%; Activity (SUM149PT [20]): 1.93%; Activity (SUM149PT [21]): 32%
COc1ccc(-c2cc3cc(F)cc(C(N)=O)c3oc2=O)cc1O	> 60	< 40	> 60	–	–	–	–
COc1ccc(-c2cc3cc(F)cc(C(N)=O)c3oc2=O)cc1OC	> 60	< 40	> 60	4.09	8.6	3.67	–
COc1cc(OC)cc(-c2cc3cc(F)cc(C(N)=O)c3oc2=O)c1	> 60	< 40	> 60	–	–	–	–
NC(=O)c1cc(F)cc2cc(-c3cccc(O)c3)c(=O)oc12	> 60	< 40	> 60	–	–	–	–
NC(=O)c1cc(F)cc2cc(-c3ccc4c(c3)OCO4)c(=O)oc12	> 60	< 40	> 60	–	–	–	–
NC(=O)c1cc(F)cc2cc(-c3cccs3)c(=O)oc12	> 80	< 40	> 80	0.62	17.2	1.86	inhibition at 5 µM (SUM149PT [22]): > 70%; inhibition at 5 µM (HCC1937 [8]): > 70%
COc1ccc(-c2cc3cc(F)cc(C(N)=O)c3oc2=O)cc1	> 60	< 40	> 60	–	–	–	–
NC(=O)c1cc(F)cc2cc(-c3ccsc3)c(=O)oc12	> 60	< 40	> 60	11.6	20.6	1.9	–
NC(=O)c1cccc2cc(-c3ccc(O)cc3)c(=O)oc12	> 60	< 40	> 60	3.14	19.1	10.8	–
COc1cccc(-c2cc3cccc(C(N)=O)c3oc2=O)c1	> 60	< 40	> 80	4.93	4.6	0.62	inhibition at 20 µM (CAPAN-1 [6]): > 60%; inhibition at 5 µM (HCC1937 [8]): > 70%; inhibition at 5 µM (CAPAN-1 [7]): > 50%
NC(=O)c1cc(F)cc2cc(-c3ccccc3)c(=O)oc12	> 60	< 40	> 60	–	–	–	–
COc1cc(-c2cc3cccc(C(N)=O)c3oc2=O)ccc1O	> 60	< 40	> 60	–	–	–	–
NC(=O)c1cccc2cc(-c3cccc(O)c3)c(=O)oc12	> 60	< 40	> 60	–	–	–	–
NC(=O)c1cccc2cc(-c3ccccc3O)c(=O)oc12	> 60	< 40	> 60	–	–	–	–
NC(=O)c1cccc2cc(-c3ccc4c(c3)OCO4)c(=O)oc12	> 60	< 40	> 60	–	–	–	–
COc1cc(OC)cc(-c2cc3cccc(C(N)=O)c3oc2=O)c1	> 60	< 40	> 60	–	–	–	–
NC(=O)c1cccc2cc(-c3ccsc3)c(=O)oc12	> 60	< 40	> 60	–	–	–	–
